Test results: patent US6767906B2, “2-amino-6-anilino-purines and their use as medicaments” (Novartis AG, priority 1999, dated 2004)

| Compound | melting point [°C] |
| --- | --- |
| CCn1cnc2c(Nc3cccc(NC(=O)C#Cc4c(Cl)cccc4Cl)c3)nc(N[C@H]3CC[C@H](O)CC3)nc21 [Example 107, N-{3-[9-Ethyl-2-(trans-4-hydroxy-cyclo-hexylamino)-9H-purin-6-yl-amino]-phenyl}-3-(2,6-dichlorophenyl)-propargylic acid amide] | 234 to 236 |
| CCn1cnc2c(Nc3ccc(NC(=O)OCC(C)C)cc3)nc(N[C@H]3CC[C@H](O)CC3)nc21 [Example 84, {4-[9-Ethyl-2-(trans-4-hydroxy-cyclo-hexylamino)-9H-purin-6-yl-amino]-phenyl}-carbamic acid isobutyl ester] | 121 to 125 |
| CCn1cnc2c(Nc3ccc(NC(=O)Oc4ccccc4)cc3)nc(N[C@H]3CC[C@H](O)CC3)nc21 | 135 to 139 |
| CC(C)n1cnc2c(Nc3cccc(NC(=O)C#Cc4ccc(Cl)cc4)c3)nc(NC3CCC(O)CC3)nc21 (centres unmarked) [Example 96, 3-(4-Chloro-phenyl)-propynoic acid {3-[2-(4-hydroxy-cyclohexylamino)-9-isopropyl-9H-purin-6-ylamino]-phenyl}-amide] | 156 to 158 |
| CCn1cnc2c(Nc3cccc(C(=O)NCc4ccccc4)c3)nc(N[C@H]3CC[C@H](O)CC3)nc21 [Example 72, N-benzyl-3-[9-ethyl-2-(trans-4-hydroxy-cyclohexylamino)-9H-purin-6-yl-amino]-benzamide] | 215 |
| CCn1cnc2c(Nc3cccc(NC(=O)C#Cc4cc(C)ccc4C)c3)nc(N[C@H]3CC[C@H](O)CC3)nc21 [Example 109, N-{3-[9-Ethyl-2-(trans-4-hydroxy-cyclo-hexylamino)-9H-purin-6-yl-amino]-phenyl)-3-(2,5-dimethyl-phenyl)-propargylic acid amide] | 231 to 232 |
| CCn1cnc2c(Nc3cccc(NC(=O)C#Cc4cccs4)c3)nc(N[C@H]3CC[C@H](O)CC3)nc21 [Example 108, N-{3-[9-Ethyl-2-(trans-4-hydroxy-cyclo-hexylamino)-9H-purin-6-yl-amino]-phenyl}-3-(2-thiophenyl)-propargylic acid amide] | 158 to 161 |
| CCn1cnc2c(Nc3cccc(C(=O)NCc4ccc(C)cc4)c3)nc(N[C@H]3CC[C@H](O)CC3)nc21 [Example 74, 3-[9-ethyl-2-(trans-4-hydroxy-cyclohexylamino)-9H-purin-6-yl-amino]-N-(4-methyl-benzyl)-benzamide] | 130 to 134 |
| CCCCc1ccc(N(c2nc(N[C@H]3CCCC[C@H]3C(N)=O)nc3c2ncn3CC)S(N)(=O)=O)cc1 (relative stereo) [Example 1, cis-2-[6-(4-butyl-aminosulfonyl-phenylamino)-9-ethyl-9H-purin-2-yl-amino]-cyclohexanecarboxylic acid amide] | 220 |
| CCn1cnc2c(Nc3cccc(NS(=O)(=O)c4ccc(OC)cc4)c3)nc(N[C@H]3CC[C@H](O)CC3)nc21 [Example 82, N-{3-[9-Ethyl-2-(trans-4-hydroxy-cyclo-hexylamino)-9H-purin-6-yl-amino]-phenyl}-4-methoxy-benzenesulfonamide] | 140 to 143 |
| CCn1cnc2c(Nc3cccc(NS(C)(=O)=O)c3)nc(N[C@H]3CC[C@H](O)CC3)nc21 [Example 80, N-{3-[9-Ethyl-2-(trans-4-hydroxy-cyclo-hexylamino)-9H-purin-6-yl-amino]-phenyl} methanesulfonamide] | 265 to 267 |
| CCn1cnc2c(Nc3cccc(NC(=O)C#Cc4ccc(F)cc4)c3)nc(N[C@H]3CC[C@H](O)CC3)nc21 [Example 93, N-{3-[9-Ethyl-2-(trans-4-hydroxy-cyclo-hexylamino)-9H-purin-6-yl-amino]-phenyl}-3-(4-fluorophenyl)-propargylic acid amide] | 144 to 146 |
| CCn1cnc2c(Nc3cccc(NC(=O)C#CCN4CCN(C)CC4)c3)nc(NC3CCC(O)CC3)nc21 (centres unmarked) [Example 112, 4-(4-Methyl-piperazin-1-yl)-but-2-ynoic acid {3-[9-ethyl-2-(4-hydroxy-cyclohexylamino)-9H-purin-6-ylamino]-phenyl)-amide] | 115 to 122 |
| CCn1cnc2c(Nc3cccc(NC(=O)C#CCN4CCCCC4)c3)nc(NC3CCC(O)CC3)nc21 (centres unmarked) [Example 111, 4-Piperidin-1-yl-but-2-ynoic acid {3-[9-ethyl-2-(4-hydroxy-cyclohexyl-amino)-9H-purin-6-ylamino]-phenyl}-amide] | 150 |
| CCn1cnc2c(Nc3cccc(NC(=O)C#Cc4cccc(C(F)(F)F)c4)c3)nc(NC3CCC(O)CC3)nc21 (centres unmarked) [Example 103, 3-(3-Trifluoromethyl-phenyl)-propynoic acid {3-[9-ethyl-2-(4-hydroxy-cyclohexylamino)-9H-purin 6-ylamino]-phenyl}-amide] | 156 to 168 |
| CCn1cnc2c(Nc3cccc(NC(=O)C#Cc4cccc(C)c4)c3)nc(NC3CCC(O)CC3)nc21 (centres unmarked) [Example 102, 3-m-Tolyl-propynoic acid {3-[9-ethyl-2-(4-hydroxy-cyclohexylamino)-9H-purin-6-ylamino]-phenyl}-amide] | 164 to 171 |

| Compound | melting point [°C] |
| --- | --- |
| CCn1cnc2c(Nc3ccc(NC(=O)OC)cc3)nc(N[C@H]3CC[C@H](O)CC3)nc21 [Example 83, {4-(9-Ethyl-2-(trans-4-hydroxy-cyclo-hexylamino)-9H-purin-6-yl-amino]-phenyl)-carbamic acid methyl ester] | 131 to 135 |
| CCn1cnc2c(Nc3cccc(NC(=O)OCC(C)C)c3)nc(N[C@H]3CC[C@H](O)CC3)nc21 [Example 87, {3-[9-Ethyl-2-(trans-4-hydroxy-cyclo-hexylamino)-9H-purin-6-yl-amino]-phenyl}-carbamic acid isobutyl ester] | 122 to 125 |
| CCn1cnc2c(Nc3cccc(NC(=O)Oc4ccccc4)c3)nc(N[C@H]3CC[C@H](O)CC3)nc21 | 131 to 134 |
| CCn1cnc2c(Nc3cccc(C(=O)NCc4ccc(OC)cc4)c3)nc(N[C@H]3CC[C@H](O)CC3)nc21 [Example 75, 3-[9-ethyl-2-(trans-4-hydroxy-cyclohexylamino)-9H-purin-6-yl-amino]-N-(4-methoxy-benzyl)-benzamide] | 157 to 158 |
| Cc1ccc(C#CC(=O)Nc2cccc(Nc3nc(NC4CCC(O)CC4)nc4c3ncn4C(C)C)c2)cc1 (centres unmarked) [Example 97, 3-p-Tolyl-propynoic acid {3-[2-(4-hydroxy-cyclohexylamino)-9-isopropyl-9H-purin-6-ylamino]-phenyl}-amide] | 152 to 154 |
| CC(C)n1cnc2c(Nc3cccc(NC(=O)C#Cc4ccc(F)cc4)c3)nc(NC3CCC(O)CC3)nc21 (centres unmarked) [Example 99, 3-(4-Fluoro-phenyl)-propynoic acid {3-[2-(4-hydroxy-cyclohexylamino)-9-isopropyl-9H-purin-6-ylamino]-phenyl}-amide] | 145 to 147 |
| CCn1cnc2c(Nc3cccc(NC(=O)OC)c3)nc(N[C@H]3CC[C@H](O)CC3)nc21 [Example 86, {3-[9-Ethyl-2-(trans-4-hydroxy-cyclo-hexylamino)-9H-purin-6-yl-amino]-phenyl}-carbamic acid methyl ester] | 214 to 217 |
| COc1ccc(C#CC(=O)Nc2cccc(Nc3nc(NC4CCC(O)CC4)nc4c3ncn4C(C)C)c2)cc1 (centres unmarked) [Example 98, 3-(4-Methoxy-phenyl)-propynoic acid {3-[2-(4-hydroxy-cyclohexyl-amino)-9-isopropyl-9H-purin-6-ylamino]-phenyl)-amide] | 246 to 248 |
| CCn1cnc2c(Nc3cccc(NC(=O)C#Cc4ccc(OC)cc4)c3)nc(N[C@H]3CC[C@H](O)CC3)nc21 [Example 95, N-{3-[9-Ethyl-2-(trans-4-hydroxy-cyclo-hexylamino)-9H-purin-6-yl-amino]-phenyl}-3-(4-methoxyphenyl)-propargylic acid amide] | 142 to 144 |
| CCn1cnc2c(Nc3cccc(C(=O)NCc4ccc(C(F)(F)F)cc4)c3)nc(N[C@H]3CC[C@H](O)CC3)nc21 [Example 76, 3-[9-ethyl-2-(trans-4-hydroxy-cyclohexylamino)-9H-purin-6-yl-amino]-N-(4-trifluoromethyl-benzyl)-benzamide] | 129 to 137 |
| CCn1cnc2c(Nc3cccc(NC(=O)C#Cc4nccc(C)n4)c3)nc(NC3CCC(O)CC3)nc21 (centres unmarked) [Example 106, 3-(4-Methyl-pyrimidin-2-yl)-propynoic acid {3-[9-ethyl-2-(4-hydroxy-cyclohexylamino)-9H-purin-6-ylamino]-phenyl}-amide] | 167 to 177 |
| CCn1cnc2c(Nc3cccc(NC(=O)C#Cc4ccc(C)c(C)c4)c3)nc(N[C@H]3CC[C@H](O)CC3)nc21 [Example 110, N-(3-[9-Ethyl-2-(trans-4-hydroxy-cyclo-hexylamino)-9H-purin-6-yl-amino]-phenyl}-3-(3,4-dimethyl-phenyl)-propargylic acid amide] | 146 to 148 |
| CCn1cnc2c(Nc3cccc(NC(=O)C#Cc4cccc(C)n4)c3)nc(NC3CCC(O)CC3)nc21 (centres unmarked) [Example 105, 3-(6-Methyl-pyridin-2-yl)-propynoic acid {3-[9-ethyl-2-(4-hydroxy-cyclohexylamino)-9H-purin-6-ylamino]-phenyl}-amide] | 149 to 156 |
| CC(C)n1cnc2c(Nc3cccc(NC(=O)C#Cc4ccccc4)c3)nc(NC3CCC(O)CC3)nc21 (centres unmarked) [Example 100, 3-(Phenyl)-propynoic acid {3-[2-(4-hydroxy-cyclohexylamino)-9-isopropyl-9H-purin-6-ylamino]-phenyl}-amide] | 162 to 164 |
| CCn1cnc2c(Nc3cccc(NC(=O)C#Cc4ccc(Cl)cc4)c3)nc(N[C@H]3CC[C@H](O)CC3)nc21 [Example 92, N-{3-[9-Ethyl-2-(trans-4-hydroxy-cyclo-hexylamino)-9H-purin-6-yl-amino]-phenyl}-3-(4-chlorophenyl)-propargylic acid amide] | 148 to 150 |
| CCn1cnc2c(Nc3cccc(C(=O)NCc4ccc(F)cc4)c3)nc(N[C@H]3CC[C@H](O)CC3)nc21 [Example 73, 3-[9-ethyl-2-(trans-4-hydroxy-cyclohexylamino)-9H-purin-6-yl-amino]-N-(4-fluoro-benzyl)-benzamide] | 165 to 167 |
